# In EPA's ToxValDB 9.5 (doi:10.2903/j.efsa.2008.148r):
# Key:
# Poecilus cupreus = experiment: LR50; higher = less toxic; conditions: not reported; mortality
# Oryctolagus sp. = conditions: reproduction developmental; body weight
# Mus musculus = conditions: acute; oral; mortality
# Lepidium sativum = conditions: acute; duration: 14 days; growth
# Apis mellifera = conditions: acute; duration: 48 hours; oral; unspecified; mortality
# Avena sativa = conditions: acute; duration: 14 days; growth
# Coturnix japonica = conditions: acute; oral; mortality
# Daphnia magna = conditions: chronic/long-term; duration: 21 days; reproduction
# Canidae = conditions: subchronic; duration: 90 days; oral; Dog Other; clinical signs
# Folsomia candida = conditions: chronic/long-term; duration: 28 days; reproduction
# Macromiidae = conditions: acute; duration: 72 hours; biomass
smiles,measurement,setting,value
O=[N+]([O-])/N=C1\NCCN1Cc1ccc(Cl)nc1 [Imidacloprid],LR50,Poecilus cupreus,0.136 mg/kg
same,NOAEL,Oryctolagus sp.,8 mg/kg-day
same,LD50,Mus musculus,131 mg/kg-day
same,NOEC,Lepidium sativum,10 mg/kg
same,LD50,Apis mellifera,0.0037 µg/piece
same,NOEC,Avena sativa,≥ 100 mg/kg
same,LD50,Coturnix japonica,31 mg/kg-day
same,NOEC,Daphnia magna,1.8 mg/L
same,NOAEL,Canidae,7.8 mg/kg-day
same,LC50,"Oncorhynchus mykiss; acute, duration: 96 hours, mortality",211 mg/L
same,NOEC,"Oncorhynchus mykiss; chronic/long-term, duration: 91 days, time to swim up",9.02 mg/L
same,NOEC,Folsomia candida,1.25 mg/kg
same,NOEC,Macromiidae,10 mg/L
same,LC50,"Tagia sp.; acute, duration: 14 days, mortality",10.7 mg/kg
same,NOEC,"Tagia sp.; chronic/long-term, duration: 56 days, reproduction",> 0.178 mg/kg
same,NOAEL,Rattus norvegicus; chronic,17 mg/kg-day
same,NOAEL,"Rattus norvegicus; chronic, duration: 2 years, histopathology: nonneoplastic",5.7 mg/kg-day
same,NOAEL,"Rattus norvegicus; subchronic, duration: 90 days, oral, histopathology: nonneoplastic",9.3 mg/kg-day
same,NOAEL,Colinus virginianus; reproduction developmental,9.3 mg/kg-day
same,NOEL,"Colinus virginianus; short-term, oral, diet",29.4 mg/kg-day
